Measured values as given in ChEMBL document CHEMBL1201862, “PubChem BioAssay data set” (2004).
Values joined by “and” are separate entries in the source; they are usually repeats but may differ in a detail not shown here. Identical values can stand only once.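 Protocol summary: plate cells (96-well), add compound at 5 concentrations, incubate 48 h, interpolate endpoints linearly. Here, GI50 denotes the concentration required for 50% inhibition of growth.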 Active and inactive are the calls of the source. Cut-off read from the data, not from the text of the source: active = GI50 up to about 1.1 µM and inactive = higher.

Assays:
Assay in all cases: NCI-60 cell line screen, 48 h
COLO 205 = tested on: COLO 205
HCC 2998 = tested on: HCC 2998
HL-60 = tested on: HL-60
HOP-62 = tested on: HOP-62
HT-29 = tested on: HT-29
KM12 = tested on: KM12
LOX IMVI = tested on: LOX IMVI
OVCAR-3 = tested on: OVCAR-3
OVCAR-5 = tested on: OVCAR-5
OVCAR-8 = tested on: OVCAR-8
RPMI-8226 = tested on: RPMI-8226
RXF 393 = tested on: RXF 393
SF-539 = tested on: SF-539
SK-OV-3 = tested on: SK-OV-3
SNB-75 = tested on: SNB-75
TK-10 = tested on: TK-10
U-251 = tested on: U-251
UO-31 = tested on: UO-31
PC-3 = tested on: PC-3
NCI/ADR-RES = tested on: NCI/ADR-RES

Measured: GI50

CN(O)C(=O)c1ccccc1
inactive: COLO 205 > 100 µM | HCC 2998 > 100 µM | HL-60 > 100 µM | HOP-62 > 100 µM | HT-29 > 100 µM | KM12 > 100 µM | LOX IMVI > 100 µM | OVCAR-3 > 100 µM | OVCAR-5 > 100 µM | OVCAR-8 > 100 µM | RPMI-8226 > 100 µM | RXF 393 > 100 µM | SF-539 > 100 µM | SK-OV-3 > 100 µM | SNB-75 > 100 µM | TK-10 > 100 µM | U-251 > 100 µM | UO-31 > 100 µM

OCCN1CCN(CC/C=C2/c3ccccc3Sc3ccc(Cl)cc32)CC1
inactive: COLO 205 9.73 µM | HCC 2998 11.3 µM | HL-60 1.76 µM | HOP-62 16.1 µM | HT-29 2.57 µM | KM12 9.57 µM | LOX IMVI 8.81 µM | OVCAR-3 14.7 µM | OVCAR-5 17.1 µM | RPMI-8226 9.82 µM | RXF 393 13.1 µM | SF-539 12.9 µM | SK-OV-3 15.8 µM | SNB-75 3.69 µM | TK-10 15.2 µM | U-251 12.9 µM | UO-31 13.3 µM

CC[N+]1(C)CCC(O)(c2ccc(OC)cc2)C(C(=O)c2ccc(OC)cc2)C1 (configuration not stated)
inactive: COLO 205 3.15 µM | HCC 2998 19.6 µM | HL-60 2.52 µM | HOP-62 18.9 µM | HT-29 7.03 µM | KM12 16 µM | LOX IMVI 16.3 µM | OVCAR-3 12.4 µM | OVCAR-5 18.7 µM | OVCAR-8 21 µM | PC-3 17.7 µM | RPMI-8226 1.91 µM | RXF 393 7 µM | SF-539 17.4 µM | SK-OV-3 18 µM | SNB-75 13.7 µM | TK-10 4.51 µM | U-251 1.54 µM | UO-31 18.7 µM

COc1ccc(-c2nc(SC)n(C3OC(COC(C)=O)C(OC(C)=O)C(OC(C)=O)C3OC(C)=O)c(=O)c2C#N)cc1 (configuration not stated)
inactive: COLO 205 > 100 µM | HCC 2998 > 100 µM | HL-60 > 100 µM | HT-29 > 100 µM | KM12 > 100 µM | LOX IMVI 56.4 µM | NCI/ADR-RES 79.8 µM | OVCAR-8 79.3 µM | PC-3 > 100 µM | TK-10 > 100 µM | U-251 34.7 µM and 39.5 µM | UO-31 27 µM and 25.6 µM

C=C1C2Oc3ccccc3C1N(c1ccccc1)O2 (configuration not stated)
inactive: COLO 205 48.5 µM | HCC 2998 31 µM | HL-60 30.3 µM | HOP-62 66.7 µM | HT-29 23 µM | KM12 17.9 µM | LOX IMVI 13.7 µM | OVCAR-3 32.3 µM | OVCAR-5 80 µM | OVCAR-8 17 µM | RPMI-8226 23.7 µM | RXF 393 30.9 µM | SF-539 23.8 µM | SK-OV-3 64.3 µM | SNB-75 43.8 µM | TK-10 84.9 µM | U-251 27.2 µM | UO-31 47.9 µM

CCCCc1c2c(nc3c1CCCC3=O)C(=O)CCC2
inactive: COLO 205 > 100 µM | HCC 2998 > 100 µM | HL-60 > 100 µM | HOP-62 > 100 µM | HT-29 > 100 µM | KM12 > 100 µM | LOX IMVI > 100 µM | OVCAR-3 > 100 µM | OVCAR-5 > 100 µM | OVCAR-8 > 100 µM | RPMI-8226 > 100 µM | RXF 393 > 100 µM | SF-539 > 100 µM | SK-OV-3 > 100 µM | SNB-75 62.4 µM | TK-10 > 100 µM | U-251 > 100 µM | UO-31 > 100 µM

CCN(CC)CCCNC(=O)C1COc2cc(-c3cc(=O)c4ccccc4o3)ccc2O1 (configuration not stated)
inactive: COLO 205 25.1 µM | HCC 2998 42.2 µM | HL-60 36.9 µM | HOP-62 > 100 µM | HT-29 41.7 µM | LOX IMVI 23.6 µM | OVCAR-3 93.5 µM | OVCAR-5 81.7 µM | OVCAR-8 53.7 µM | RPMI-8226 > 100 µM | RXF 393 39.8 µM | SF-539 19.5 µM | SK-OV-3 > 100 µM | SNB-75 45.9 µM | TK-10 42.4 µM | U-251 37.8 µM | UO-31 27.4 µM

Cc1ccc([N+](=O)[O-])cc1NC(=O)C(=O)Cc1occc(=O)c1O
inactive: COLO 205 > 100 µM | HCC 2998 > 100 µM | HL-60 > 100 µM | HOP-62 > 100 µM | HT-29 > 100 µM | KM12 > 100 µM | LOX IMVI > 100 µM | OVCAR-3 > 100 µM | OVCAR-5 > 100 µM | OVCAR-8 > 100 µM | RPMI-8226 > 100 µM | RXF 393 > 100 µM | SF-539 > 100 µM | SK-OV-3 > 100 µM | SNB-75 > 100 µM | TK-10 > 100 µM | U-251 > 100 µM | UO-31 > 100 µM
